Reference: paper PMC8262325, “Phosphatase inhibition by LB-100 enhances BMN-111 stimulation of bone growth” (JCI Insight, 2021)
Where two headings read alike, the source gives them in different places. Bridges are numbered along the chain shown (N, C = ends).

Columns and labels:
[1] = tested on: NPR2 guanylyl cyclase; experiment: cGMP production in chondrocytes of intact tibia growth plates (cGi500 FRET sensor imaging); type: cell-based, mouse; settings: for cGMP increase (CFP/YFP emission ratio from cGi500) on perfusion of agonist: no FGF
Procedure: cGMP production in chondrocytes within intact growth plates was measured using tibias dissected from newborn mice (0- to 1-day-old mice) that globally expressed 1 or 2 copies of the cGi500 FRET sensor, as previously described ([27]). Tibias were dissected and cultured overnight on Millicell organotypic membranes (PICMORG50; MilliporeSigma) in BGJb medium (Thermo Fisher Scientific, catalog 12591-038) with 0.1% BSA (MP Biomedicals, catalog 103700), 100 units/mL of penicillin, and 100 μg/mL of streptomycin (Thermo Fisher Scientific, 15140-122). In preparation for imaging, each tibia was slit to remove the tissue overlying the growth plate. Where indicated, the tibia was incubated in LB-100, cantharidin, or control medium, followed by addition of FGF18 (0.5 μg/mL + 1 μg/mL heparin) or control medium containing heparin only. The tibia was then placed in a perfusion slide (ibidi USA, catalog 80186, special order with no adhesive), and the growth plate was imaged on the stage of a confocal microscope, as previously described ([27]).

[2] = tested on: PPP2C; parameters: method as in PMID 30679389; settings: reported previously, read-out: Phosphatase IC50 mean ± SE, PPP2C, cited from earlier work
[3] = tested on: Fgfr3^Y367C/+ femurs; experiment: Ex vivo culture of fetal femurs, growth in length and area; parameters: species or system mouse; settings: E16.5 Fgfr3^Y367C/+ femurs, 6-day culture; LB-100 10 μM, BMN-111 0.1 μM
Procedure: Femurs from E16.5 embryos were cultured ex vivo, as described previously ([32], [47]). The left femur was cultured in the presence of LB-100 (10 μM), BMN-111 (0.1 μM), or LB-100 (10 μM) + BMN-111 (0.1 μM) and was compared with the vehicle-treated right femur. The bone’s length was measured on day 0 (D0) and D6. Images were captured with an Olympus SZX12 stereo microscope and quantified using cellSens software (Olympus). The results were expressed as the increase in femur length or area (D6 – D0) in the presence or absence of LB-100, BMN-111, or LB-100 + BMN-111. Bone length and area were measured as shown in Supplemental Figure 5. To generate the graphs shown in Figure 3, the length or 2-dimensional area on D0 was subtracted from the length or area on D6 to calculate the amount of growth. These measurements of growth in drug-treated bones were divided by the mean values from corresponding measurements of control (vehicle-treated) bones; the graphs show the ratio of treated/control growth.

[4] = biological target: T1, recombinant PPP1CA (PPP1C) (Homo sapiens, UniProt P62136); experiment: Phosphatase activity inhibition assay (DiFMUP or [32P]-phosphohistone substrate); type: biochemical
T1 construct: made in house; host or cells: E. coli BL-21
T1 sequence (P62136 whole entry): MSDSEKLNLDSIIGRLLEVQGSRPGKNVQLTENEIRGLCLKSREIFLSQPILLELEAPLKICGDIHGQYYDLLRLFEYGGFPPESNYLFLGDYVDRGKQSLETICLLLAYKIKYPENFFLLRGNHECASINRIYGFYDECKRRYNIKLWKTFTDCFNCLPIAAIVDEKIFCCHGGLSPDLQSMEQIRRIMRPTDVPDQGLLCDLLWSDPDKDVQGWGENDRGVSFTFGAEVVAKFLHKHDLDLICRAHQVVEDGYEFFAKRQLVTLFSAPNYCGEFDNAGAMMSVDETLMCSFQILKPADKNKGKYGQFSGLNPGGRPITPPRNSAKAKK
Procedure: The coding sequence of human PPP1CA was expressed as a maltose binding protein fusion in a BL-21 strain of E. coli and purified as previously described ([55]). Phosphohistone phosphatase assays were performed as previously described ([55], [56]). Briefly, LB-100, at the indicated concentrations, or vehicle control (H2O) was added to enzyme/buffer aliquots about 10 minutes prior to starting assays by the addition of [^32P]-phosphohistone substrate (to a final assay concentration of 300 nM incorporated phosphate). [^32P]-phosphohistone was prepared by the phosphorylation of bovine brain histone (MilliporeSigma, type-2AS) with cAMP-dependent protein kinase (PKA) in the presence of cAMP and [^32P]-ATP using established methods ([56], [57]). Phosphatase activity was measured by the quantitation of [^32P]-labeled orthophosphate liberated from the substrate using established protocols ([57]). 6,8-Difluoro-4-methylumbelliferyl phosphate–based (DiFMUP-based) inhibition assays were conducted as described ([56], [57]), in a 96-well format using DiFMUP (Invitrogen) (100 μM final assay concentration). IC50 values were calculated from a 10-point concentration/dose response curve by a 4-parameter logistic fit of the data, using 3–8 replicates per concentration.

[5] = tested on: NPR2; experiment: NPR2 phosphorylation in primary rib chondrocyte cultures (Phos-tag gel electrophoresis, Western blot); type: cell-based, mouse; settings: for NPR2 dephosphorylation in response to FGF: then FGF18 0.5 μg/mL 10 minutes
Procedure: Rib cages were dissected from newborn mice (0–2 days old) and trimmed to remove the skin, spinal cord, and soft tissue around the sternum and ribs. Nonchondrocyte tissue was digested away by incubating the rib cages in 2 mg/mL pronase (Roche, catalog 10165921001) in PBS for 1 hour in a shaking water bath at 37°C and was then incubated in 3 mg/mL collagenase D (Roche, catalog 11088866001) in medium for 1 hour. After washing, the rib cages were transferred to a dish with fresh collagenase D and incubated for 5–6 hours, with trituration at 2 hours, to release the chondrocytes. The isolated cells were passed through a 40 μm nylon cell strainer (Corning, catalog 431750), resuspended in DMEM/F12 medium (Thermo Fisher Scientific, catalog 11320-033) with 10% FBS (Thermo Fisher Scientific, catalog 10082-139), 100 units/mL of penicillin, and 100 μg/mL of streptomycin. The cells were plated in 35 mm tissue culture dishes, at a density corresponding to 1 newborn mouse per dish, and cultured for 3 days, at which point the cells were approximately 75%–90% confluent. They were then washed with PBS and incubated in serum-free medium for 18 hours. The cells were then incubated in LB-100 (10 μM), or control medium, followed by addition of FGF18 (0.5 μg/mL + 1 μg/mL heparin) or control medium containing heparin only.
At end of the incubation period, dishes were washed in PBS, and cells were lysed in 250 μL of 1% SDS containing 10 mM sodium fluoride, 1 μM microcystin-LR (Cayman Chemical, catalog 10007188), and protease inhibitor cocktail (Roche, catalog 04 693 159 001). Protein content was determined by a BCA assay (Pierce, catalog 23225). The protein yield per newborn mouse was approximately 200–300 μg.
Proteins were separated in a Phos-tag–containing gel, as previously described ([58]), except that chondrocyte lysates (30 μg protein) were used without immunoprecipitation. Phos-tag and protein size markers were obtained from Fujifilm Wako Pure Chemical (catalogs AAL-107 and 230-02461, respectively). For these studies, we used mice with HA-tagged NPR2 ([43]), and blots were probed with an antibody against the HA tag (Cell Signaling Technology, catalog 2367, 1:1000 dilution). The specificity of this antibody is validated in Supplemental Figure 3. Note that molecular weight markers are only approximate for Phos-tag gels.

[6] = tested on: PPP5C; parameters: method as in PMID 30679389; settings: reported previously, read-out: Phosphatase IC50 mean ± SE, PPP5C, cited from earlier work
[7] = tested on: NPR2 guanylyl cyclase; parameters: method as in PMID 29199951; settings: 100 μM; cited from earlier work
[8] = tested on: Fgfr3^Y367C/+ mice; parameters: method as in PMID 23200862; settings: cited from earlier work
[9] = tested on: children with ACH; parameters: method as in PMID 31269546, PMID 32891212; settings: children 5–14 years of age with ACH, up to 42 months, phase 2 and 3 data; cited from earlier work
[10] = tested on: growth plate chondrocytes of Fgfr3^Y367C/+ femurs; experiment: Histology of growth plates of ex vivo cultured femurs (HES, COLX immunostaining); parameters: species or system mouse; settings: 6-day culture, LB-100 10 μM, BMN-111 0.1 μM
Source text: After a 6-day culture period, fetal femur (E16.5) explants were fixed in 4% paraformaldehyde, decalcified with EDTA (0.4M), and embedded in paraffin. Serial 5 μm sections were stained with hematoxylin‑eosin‑safran (HES) reagent, using standard protocols. For immunohistochemical assessment, sections were labeled with the following antibodies and a Dako Envision Kit: anti-COLX (BIOCYC, catalog N.2031501005; 1:50 dilution), and anti–phosphorylated ERK1‑2 ([…]) (Cell Signaling Technology, catalog 4370; 1:100 dilution). Images were captured with an Olympus PD70-IX2-UCB microscope and quantified using cellSens software.
Mean areas of individual hypertrophic chondrocytes were measured from COLX-labeled sections, within a 166 μm wide × 76 μm high box positioned 50 μm from mineralization front (Supplemental Figure 6). The measurements were made manually using Fiji software and the freehand selection tool. […] We measured the total area occupied by chondrocytes within the whole growth plate and the area occupied by COLX^+ chondrocytes. The area for proliferating chondrocytes was calculated by subtracting the COLX^+ area from the whole growth plate area.

[11] = substrate [32P]-labeled phosphohistone

CCN(CC)/[N+]([O-])=N/O.CCNCC [DEA/NO]
cGMP increase (CFP/YFP emission ratio from cGi500) on perfusion of agonist ([1]; 10 μM perfused across growth plate of newborn mouse tibia): did not increase cGMP

CN1CCN(C(=O)C2C3CCC(O3)C2C(=O)O)CC1 (stereo not shown) [LB-100, 3-[4-methylpiperazine-1-carbonyl]-7-oxabicyclo[2.2.1]heptane-2-carboxylic acid]
IC50 ([2]; substrate DiFMUP): 390 ± 13 nM | IC50 [2, 11]: 640 ± 37 nM | Increase in bone length, ratio treated/vehicle-treated control [3]: 1.30 | Increase of total bone and cartilage area, growth ratio treated/control [3]: 1.40 | IC50 ([4]; 2 established assays with different substrates, read-out: IC50 for inhibition of PPP1C): < 2000 nM | IC50 ([4]; substrate DiFMUP, read-out: Phosphatase IC50 mean ± SE, PPP1C): 1800 ± 21 nM | IC50 ([4]; substrate [32P]-labeled phosphohistone, read-out: Phosphatase IC50 mean ± SE, PPP1C): 1680 ± 130 nM | NPR2 dephosphorylation in response to FGF ([5]; 10 μM preincubation 1 hour with BMN-111 0.1 μM present): counteracts the FGF-induced dephosphorylation | NPR2 dephosphorylation in response to FGF ([5]; 10 μM preincubation 1 hour): only partial | CNP-induced cGMP increase in FGF-treated tibias ([1]; 1 μM preincubation 60 minutes before FGF18 (80 minutes)): no effect | Effectiveness in counteracting inactivation of NPR2 by FGF, compared with cantharidin ([1]; 5 μM LB-100 equivalent to 10 μM cantharidin): more effective than cantharidin | CNP-induced cGMP increase in FGF-treated tibias ([1]; 5 μM preincubation 60 minutes before FGF18 (80 minutes)): enhanced | CNP-induced cGMP increase in FGF-treated tibias ([1]; 10 μM preincubation 60 minutes before FGF18 (80 minutes)): enhanced | Chondrocyte morphology in the live growth plate ([1]; 10 μM, 2-hour incubation): no visible change in chondrocyte morphology | IC50 ([6]; substrate DiFMUP): 1820 ± 93 nM | IC50 [6, 11]: 4900 ± 290 nM

C[C@@]12C(=O)OC(=O)[C@]1(C)[C@H]1CC[C@@H]2O1 [cantharidin, Cantharidin]
Effect on inactivation of NPR2 by FGF in growth plate chondrocytes [7]: inhibits the inactivation of NPR2

(Cyc[23,39])H2N-PGQEHPNARKYKGANKKGLSKGCFGLKLDRIGSMSGLGC-OH (H-PGQEHPNARKYKGANKKGLSKGCFGLKLDRIGSMSGLGC-OH; disulfide 23-39) [BMN-111, protease-resistant CNP analog, NPR2 agonist]
Bone growth in mouse model of ACH [8]: increases bone growth | Annualized growth velocity [9]: sustained increase in annualized growth velocity | Increase in bone length, ratio treated/vehicle-treated control [3]: 1.78 | Increase of total bone and cartilage area, growth ratio treated/control [3]: 1.51 | NPR2 phosphorylation ([5]; 0.1 μM for 1 hour, independently of FGF treatment): some reduction in NPR2 phosphorylation | Size of Fgfr3^Y367C/+ hypertrophic chondrocytes ([10]; proximal growth plate): increased the size | Increase of total proliferative growth plate area of the femur over vehicle ([10]; proximal plus distal growth plates): 20%

ANP: A-type natriuretic peptide, which activates the NPR1 guanylyl cyclase
cGMP increase (CFP/YFP emission ratio from cGi500) on perfusion of agonist ([1]; 0.1 μM agonist perfused across growth plate of newborn mouse tibia): did not increase cGMP

FGF18: fibroblast growth factor 18 used to activate FGF receptor
NPR2 phosphorylation ([5]; FGF18 0.5 μg/mL for 10 minutes): decrease in NPR2 phosphorylation | Effect on cGMP increase in response to CNP perfusion ([1]; pretreatment 0.5 μg/mL FGF18 + 1 μg/mL heparin for 80 minutes, 0.1 μM CNP): suppressed the cGMP increase
